Literature values, collected in PMC7866862, “Screening, Optimization, and Bioavailability Research of Natural Deep Eutectic Solvent Extracts from Radix Pueraria” (Molecules, 2021).

Columns and labels:
[1] = set-up: method as in PMID 28165806
[2] = set-up: method as in PMID 30275390; details: oral, NSSPE study

O=c1c(-c2ccc(O)cc2)coc2c([C@@H]3O[C@H](CO)[C@@H](O)[C@H](O)[C@H]3O)c(O)ccc12 [PUE, 8-β-D-glucopyranose-4′,7-dihydroxyisoflavone]
Oral bioavailability of PUE [1]: about 7%
Cmax of PUE [2]: 0.63417 µg/mL
